Measurements: US7927785B2, “Methods for in vitro expansion of hematopoietic stem cells” (The Board of Trustees of the University of Illinois, priority 2002, dated 2011)

Experiments:
Format in all cases: cell-based
[1] = system: adult human bone marrow CD34+ cells; experiment: Cell cycle analysis by FACS (SG2M %); conditions: for SG2M % 48 hours: 48 hours from the start of the experiment; for SG2M % 72 hours: 72 hours from the start of the experiment
Method: Table 4. TSA Increases the Number of Cycling Cells. Cell cycle analysis at 48 h and 72 h from the start of the experiment is shown. Cells were examined by FACS analysis for cell cycle. SG2M % indicates cells in active DNA synthesis and indicates cells that may be actively cycling. This increased cycling allows the incorporation of the hypomethylating agent 5azaD.

[2] = system: adult human bone marrow CD34+ cells; experiment: Ex vivo expansion culture: cell counts and CD34+CD90+ cell numbers; conditions: for Fold changes from the original cells: CD34+CD90+ cells; for Total counts ×10^5: start 1×10^5 CD34+ cells/well; for expansion of CD34+CD90+ cells / Absolute CD34+ Number (×10^4) / Absolute CD34+CD90+ Numbers (×10^4) / Total Mononuclear Cell Number (×10^4): 9 days with cytokines; for Absolute CD34+ Number (×10^4) / Absolute CD34+CD90+ Numbers (×10^4) / Total Mononuclear Cell Number (×10^4) / Fold Expansion of CD34+CD90+: mean of 3 ± SEM; for Fold Expansion of CD34+CD90+: compared to the primary cell numbers
Method: (§1) To promote cell division of isolated CD34^+ cells, a stroma-free suspension culture was established as previously described (Bazil et al., 1995). Tissue culture dishes (35 mm; Costar, Corning, N.Y.) were seeded with 1×10^5 CD34^+cells/well in 2.5 mL Iscove modified Dulbecco medium (IMDM) (Biowhittaker, Walkersville, Md.) containing 30% FBS and a cocktail of cytokines specifically thought to promote exit from G0/G1 in primitive HSC populations which consisted of 100 ng/mL recombinant stem cell factor (SCF), 100 ng/mL FLT-3 ligand, 100 ng/mL thrombopoetin (TPO) and 50 ng/mL of interleukin (IL)-3, (all from Amgen Inc., Thousand Oaks, Calif.).
(§2) Cells were maintained in the media and incubated at 37° C. in a 100%-humidified atmosphere containing 5% CO2 for 48 hours. After intial 16 hours of incubation cells were exposed to the demethylating agent, 5-aza2′deoxycitidine (5azaD) (Sigma Chemicals, St. Louis, Mo.) at a concentration of 10^−6M. After 48 hours, cells were washed by centrifugation and then equally distributed to new tissue culture dishes in 2.5 mL IMDM supplemented with 30% FBS containing cytokines known to promote terminal differentiation of HSC into multiple hematopoietic lineages. The cocktail of cytokines contained 100 ng/mL of SCF, 50 ng/ml of granulocyte colony-stimulating factor (G-CSF), 50 ng/mL of IL-3, 50 ng/ml of IL-6 and 5 units (U)/mL of recombinant erythropoietin (EPO) (Amgen Inc., Thousand Oaks, Calif.). Cells at this time point were exposed to Trichostatin (TSA) (Sigma Chemical., St. Louis, Mo.) at 5 ng/mL and the culture was continued for an additional 7 days. At the end of the culture period cells were counted for viability by the trypan blue exclusion method using an inverted microscope. 5-fluorouracil (5-FU) (Sigma Chemical., St. Louis, Mo.) was used at a concentration of 200 μg/ml and added at the 16 hour time point instead of 5azaD and the cultures carried on as described above with no addition of TSA.
(§3) The phenotypic characteristics of the CD34^+ cells were analyzed using FACS. After 9 days of culture, expanded marrow CD34^+ cells were analyzed for primitive HSC phenotype, previously defined, by using flow activated-cell sorter (FACS) (Becton Dickinson (BD) FACS Calibur, San Jose, Calif.). Cells were stained with anti-human CD34^+ moAb conjugated either to fluorescein isothiocyanate (FITC) or phycoerythrin (PE) and another moAb including anti-CD38, anti-CD117, anti-CD90. To determine the lineage positive cells a panel of moab all conjugated to FITC (anti-CD2, anti-CD14, anti-CD15, anti-CD19 and anti-GlyA) (all antibodies were purchased from BD) were utilized. All anaylsis were paired with the corresponding matched isotype control of the specific moAb utilized. All staining and washes were performed in DPBS (Biowhittaker, Walkersville Md.) and 0.5% BSA (Sigma, Chemicals Co., St. Louis, Mo.). Immediately prior to FACS anaylsis, […] propidium iodide (PI) (Sigma, Chemicals Co., St. Louis, Mo.) was added for the exclusion of nonviable cells for phenotypic analysis. Using Cell-Quest software (BD), at least 10,000 live cells were acquired for each analysis.

[3] = system: adult human bone marrow CD34+ cells; experiment: Phenotypic analysis (FACS) of marrow CD34+ cells after ex vivo culture; conditions: 9 days of culture; single agent; % of total cells
Method: as §1, §2, §3

[4] = 9 days of culture, single agent

SMILES	SG2M % 48 hours [1] [%]	SG2M % 72 hours [1] [%]	% CD34+ of all cells [2, 4] [%]	% CD34+ thy-1+ cells [2, 4] [%]	Absolute CD34+ thy-1+ cells ×10^5 [2, 4]	Absolute CD34 counts ×10^5 [2, 4]	Fold changes from the original cells [2, 4] [fold]	Total counts ×10^5 [2, 4]	expansion of CD34+CD90+ cells [2]	Absolute CD34+ Number (×10^4) [2]	Absolute CD34+CD90+ Numbers (×10^4) [2]	Total Mononuclear Cell Number (×10^4) [2]	Fold Expansion of CD34+CD90+ [2] [fold]	CD34+ CD90+ % [3] [%]	CD34+ CKit lo % [3] [%]	CD34+ Lin− % [3] [%]	CD34+CD38− % [3] [%]	CD34+CD133+ % [3] [%]	Total CD34+ % [3] [%]
Nc1ncn([C@H]2C[C@H](O)[C@@H](CO)O2)c(=O)n1 [5azaD, 5-aza2′deoxycitidine]	36.5	35.5	26	6	0.15 ×10^5	0.65 ×10^5	0.7	2.5 ×10^5	more limited expansion	10.0 ± 4.0 ×10^4	4.0 ± 1.7 ×10^4	32.0 ± 5.0 ×10^4	1.7 ± 0.8	7	19	30	20	12	30
CC(/C=C/C(=O)NO)=C\[C@@H](C)C(=O)c1ccc(N(C)C)cc1 [TSA, Trichostatin A]	36	41.6	3.9		0.31 ×10^5	1.7 ×10^5	1.4	46 ×10^5	more limited expansion	19.0 ± 1.0 ×10^4	4.0 ± 1.0 ×10^4	470.0 ± 87.0 ×10^4	1.8 ± 0.4	0.8	3	4	1.8	0.45	4
